Data reported in PubChem BioAssay (NCI).
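96-well plates; 48 h exposure; 5 concentrations. Endpoints by linear interpolation between flanking doses. Not reached: highest tested concentration assigned. At the GI50, growth is halved. TGI: concentration producing complete growth inhibition.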

Tests used:
Experiment in all cases: NCI tumour cell line growth inhibition, 48 h
[1] = system: DU-145 prostate
[2] = system: T-47D breast
[3] = system: TK-10 renal
[4] = system: HT29 colon
[5] = system: SK-MEL-2 melanoma
[6] = system: HOP-92 NSCLC
[7] = system: SK-MEL-5 melanoma
[8] = system: PC-3 prostate
[9] = system: SNB-75 CNS
[10] = system: HOP-62 NSCLC
[11] = system: OVCAR-4 ovarian
[12] = system: MOLT-4 leukemia
[13] = system: NCI-H226 lung
[14] = system: KM12 colon
[15] = system: SF-539 CNS
[16] = system: HCC-2998 colon
[17] = system: HS 578T breast
[18] = system: M14 melanoma
[19] = system: BT-549 breast
[20] = system: NCI-H23 lung
[21] = system: SW-620 colon
[22] = system: NCI/ADR-RES ovarian
[23] = system: OVCAR-8 ovarian
[24] = system: SR leukemia
[25] = system: ACHN renal
[26] = system: UO-31 renal
[27] = system: SK-MEL-28 melanoma
[28] = system: NCI-H522 lung
[29] = system: A549 NSCLC
[30] = system: MDA-MB-231 breast
[31] = system: SN12C renal
[32] = system: MCF7 breast
[33] = system: A498 renal
[34] = system: K-562 leukemia
[35] = system: MDA-MB-435
[36] = system: OVCAR-5 ovarian
[37] = system: IGROV1 ovarian
[38] = system: SNB-19 CNS
[39] = system: UACC-257 melanoma
[40] = system: HCT-15 colon
[41] = system: UACC-62 melanoma
[42] = system: RPMI-8226 leukemia
[43] = system: NCI-H460 lung
[44] = system: 786-0 renal
[45] = system: SF-268 CNS
[46] = system: RXF 393 renal
[47] = system: SK-OV-3 ovarian
[48] = system: MALME-3M melanoma
[49] = system: CAKI-1 renal
[50] = system: HL-60(TB) leukemia
[51] = system: SF-295 CNS
[52] = system: U251 CNS
[53] = system: OVCAR-3 ovarian
[54] = system: HCT-116 colon
[55] = system: LOX IMVI melanoma
[56] = system: EKVX NSCLC
[57] = system: COLO 205 colon
[58] = system: CCRF-CEM leukemia

What does the source list for O=C1/C=C/[C@@H](O)[C@@H]2C[C@@H](O)C[C@H]2/C=C/CCC[C@H](CCOCc2ccccc2)O1?
GI50 [1]: 412 nM; TGI [1]: > 100000 nM; GI50 [2]: 192 nM; TGI [2]: 556 nM; GI50 [3]: 186 nM; TGI [3]: 658 nM; GI50 [4]: 27.4 nM; TGI [4]: 212 nM; GI50 [5]: 172 nM; TGI [5]: 649 nM; GI50 [6]: 234 nM; TGI [6]: 909 nM; GI50 [7]: < 13.4 nM; TGI [7]: 22.7 nM; GI50 [8]: 164 nM; TGI [8]: > 100000 nM; GI50 [9]: < 27.7 nM; TGI [9]: > 95400 nM; GI50 [10]: 73.8 nM; TGI [10]: > 100000 nM; GI50 [11]: 64.3 nM; TGI [11]: > 41200 nM; GI50 [12]: 305 nM; TGI [12]: > 43700 nM; GI50 [13]: 18.8 nM; TGI [13]: 251 nM; TGI [14]: 31 nM; GI50 [15]: 112 nM; TGI [15]: > 100000 nM; GI50 [16]: 110 nM; GI50 [17]: < 22.6 nM; TGI [17]: > 100000 nM; GI50 [18]: 40.3 nM; TGI [18]: 13200 nM; GI50 [19]: 117 nM; TGI [19]: > 21900 nM; GI50 [20]: 105 nM; TGI [20]: 714 nM; GI50 [21]: 99.4 nM; TGI [21]: 822 nM; GI50 [22]: 46.9 nM; TGI [22]: 5270 nM; GI50 [23]: 52.3 nM; GI50 [24]: 142 nM; GI50 [25]: 317 nM; TGI [25]: > 100000 nM; GI50 [26]: 70.1 nM; TGI [26]: 26600 nM; GI50 [27]: < 17 nM; TGI [27]: 84.9 nM; GI50 [28]: 234 nM; TGI [28]: 577 nM; GI50 [29]: 66 nM; TGI [29]: > 100000 nM; GI50 [30]: 102 nM; TGI [30]: 267 nM; GI50 [31]: 272 nM; TGI [31]: > 100000 nM; GI50 [32]: 39.9 nM; TGI [32]: 177 nM; GI50 [33]: 17.8 nM; TGI [33]: 123 nM; GI50 [34]: 327 nM; TGI [34]: > 100000 nM; GI50 [35]: 53.9 nM; TGI [35]: > 100000 nM; GI50 [36]: 246 nM; TGI [36]: > 100000 nM; GI50 [37]: 335 nM; TGI [37]: > 26300 nM; GI50 [38]: 138 nM; TGI [38]: > 100000 nM; GI50 [39]: 16.1 nM; TGI [39]: 2320 nM; GI50 [40]: 290 nM; TGI [40]: 12900 nM; GI50 [41]: 37.2 nM; TGI [41]: 12600 nM; GI50 [42]: 297 nM; TGI [42]: 20600 nM; GI50 [43]: 380 nM; TGI [43]: > 100000 nM; GI50 [44]: 22.3 nM; TGI [44]: 53.7 nM; GI50 [45]: 37.6 nM; TGI [45]: > 100000 nM; GI50 [46]: < 13.9 nM; TGI [46]: 43.6 nM; GI50 [47]: 48.1 nM; TGI [47]: > 100000 nM; GI50 [48]: 36.5 nM; TGI [48]: 428 nM; GI50 [49]: 331 nM; TGI [49]: > 100000 nM; GI50 [50]: 282 nM; TGI [50]: 3310 nM; GI50 [51]: 51 nM; TGI [51]: > 100000 nM; GI50 [52]: 97.8 nM; TGI [52]: > 100000 nM; GI50 [53]: 39 nM; TGI [53]: 187 nM; GI50 [54]: 162 nM; TGI [54]: 379 nM; GI50 [55]: 35.2 nM; TGI [55]: 168 nM; GI50 [56]: 141 nM; TGI [56]: > 100000 nM; GI50 [57]: 29.2 nM; TGI [57]: 80.9 nM; GI50 [58]: 301 nM; TGI [58]: > 100000 nM
